Data published in US7718611B2, “Cyclic nonapeptide amides” (priority 2004, dated 2010).
Converted amounts (≈) assume the structure as drawn. Where two headings read alike, the source gives them in different places. Starred links: 1 amine or outer side, 2 acyl side, 3 side chain; linkers in the order of their positions; H or OH if unused. Positions of bridges follow the written chain, without caps; N, C: chain ends. Non-standard residues stand in square brackets, D forms with d. Residues, ends and D or L forms follow the SMILES beside them. Phe(3R-OH) = O=C([C@@H](N[*:1])[C@H](O[*:3])c1ccccc1)[*:2]; Phe(βR-NH) = O=C([C@@H](N[*:1])[C@H](N[*:3])c1ccccc1)[*:2]; X2 = O=C([C@H](Cc1ccc(C(F)(F)F)nc1)N[*:1])[*:2]; Asn(3S-OH) = NC(=O)[C@@H](O)[C@H](N)C(=O)O; Leu(3R-OH) = CC(C)[C@@H](O)[C@H](N)C(=O)O; X1 = Cc1cccc(C[C@H](N[*:1])C(=O)[*:2])n1; dAla(TMS) = C[Si](C)(C)C[C@@H](N)C(=O)O; d(tBuAla) = CC(C)(C)C[C@@H](N)C(=O)O; tBuAla = CC(C)(C)C[C@H](N)C(=O)O; 3Pal = N[C@@H](Cc1cccnc1)C(=O)O; aThr = C[C@H](O)[C@H](N)C(=O)O

How the values were obtained:
[1] = system: E. faecalis ICB 27159; assay type: cell-based, Entercococcus faecalis
Protocol: (§1) Determination of the Minimum Inhibitory Concentration (MIC):
(§2) The MIC is determined in the liquid dilution test in accordance with the NCCLS guidelines. Overnight cultures of Staphylococcus aureus 133, Entercococcus faecalis 27159, E. faecium and Streptococcus pneumoniae G9a are incubated with the described test substances in a 1:2 dilution series. The MIC determination is carried out with a cell count of 10^5 microorganisms per ml in Isosensitest medium (Difco, Irvine/USA), with the exception of S. pneumoniae which is tested in BHI broth (Difco, Irvine/USA) with 10% bovine serum at a cell count of 10^6 microorganisms per ml. The cultures are incubated at 37° C. for 18-24 hours, S. pneumoniae in the presence of 10% CO2.
(§3) The lowest substance concentration in each case at which visible bacterial growth […] is defined as the MIC. The MIC values are reported in μg/ml.

[2] = system: E. faecium L4001; assay type: cell-based
Protocol: as §1, §2, §3

[3] = system: Streptococcus pneumoniae G9a; assay type: cell-based
Protocol: as §1, §2, §3

[4] = system: Staphylococcus aureus 133; assay type: cell-based
Protocol: as §1, §2, §3

[5] = Isosensitest medium, 10^5 microorganisms per ml, 37° C., 18-24 hours
[6] = BHI broth with 10% bovine serum, 10^6 microorganisms per ml, 37° C., 18-24 hours, 10% CO2

| SMILES | MIC E. faecalis ICB 27159 [1, 5] [µg/mL] | MIC E. faecium L4001 [2, 5] [µg/mL] | MIC S. pneumoniae G9a [3, 6] [µg/mL] | MIC S. aureus 133 [4, 5] [µg/mL] | MIC E. faecalis ICB 27159 ([1]; ICB 27159) [µg/mL] | MIC E. faecium L4001 ([2]; L4001) [µg/mL] | MIC S. pneumoniae G9a ([3]; G9a) [µg/mL] | MIC S. aureus 133 [4]; 133 [µg/mL] |
| --- | --- | --- | --- | --- | --- | --- | --- | --- |
| CC[C@H](C)[C@@H]1NC(=O)[C@@H](CCCNC(=N)N)NC(=O)[C@H](CC(C)C)NC(=O)[C@H]([C@H](O)C(C)C)NC(=O)[C@@H](NC(=O)[C@H](CC(C)(C)C)NC(=O)[C@H](N)CC(C)(C)C)[C@@H](c2ccccc2)NC(=O)[C@H](CO)NC(=O)[C@H]([C@H](O)C(N)=O)NC(=O)CNC(=O)[C@H]([C@H](C)O)NC1=O [Example 1, [3-tert-Butyl-D-alanyl]-[3-tert-butyl-L-alanyl]-[(3R)-3-amino-L-phenylalanyl)]-[(3R)-3-hydroxy-L-leucyl]-L-leucyl-D-arginyl-L-isoleucyl-L-allothreonyl-glycyl-[(3S)-3-hydroxy-L-asparaginyl]-L-serine C^1.11—N^3.3-lactam bistrifluoroacetate] (H-[d(tBuAla)][tBuAla][Phe(βR-NH)][Leu(3R-OH)]L[dR]I[aThr]G[Asn(3S-OH)]S; lactam 3-C) | 0.25 (≈ 0.192 µM) | 0.25 (≈ 0.192 µM) | 0.063 (≈ 0.0483 µM) | 0.5 (≈ 0.384 µM) | – | – | – | – |
| CC[C@H](C)[C@@H]1NC(=O)[C@@H](CCCNC(=N)N)NC(=O)[C@H](CC(C)C)NC(=O)[C@H]([C@H](O)C(C)C)NC(=O)[C@@H](NC(=O)[C@H](CC(C)C)NC(=O)[C@H](N)CC(C)C)[C@@H](c2ccccc2)OC(=O)[C@H](CO)NC(=O)[C@H]([C@H](O)C(N)=O)NC(=O)CNC(=O)[C@H]([C@H](C)O)NC1=O [Example 1A, reference compound] (H-[dL]L[Phe(3R-OH)][Leu(3R-OH)]L[dR]I[aThr]G[Asn(3S-OH)]S; ester 3-C) | – | – | – | – | 0.5 (≈ 0.392 µM) | 0.5 (≈ 0.392 µM) | 0.063 (≈ 0.0494 µM) | 0.5 (≈ 0.392 µM) |
| CC[C@H](C)[C@@H]1NC(=O)[C@@H](CCCNC(=N)N)NC(=O)[C@H](CC(C)C)NC(=O)[C@H]([C@H](O)C(C)C)NC(=O)[C@@H](NC(=O)[C@H](Cc2cccnc2)NC(=O)[C@H](N)C[Si](C)(C)C)[C@@H](c2ccccc2)NC(=O)[C@H](CO)NC(=O)[C@H]([C@H](O)C(N)=O)NC(=O)CNC(=O)[C@H]([C@H](C)O)NC1=O.O=C(O)C(F)(F)F.O=C(O)C(F)(F)F.O=C(O)C(F)(F)F [Example 3] (H-[dAla(TMS)][3Pal][Phe(βR-NH)][Leu(3R-OH)]L[dR]I[aThr]G[Asn(3S-OH)]S; lactam 3-C) | 2 | – | 0.25 | 0.125 | – | – | – | – |
| CC[C@H](C)[C@@H]1NC(=O)[C@@H](CCCNC(=N)N)NC(=O)[C@H](CC(C)C)NC(=O)[C@H]([C@H](O)C(C)C)NC(=O)[C@@H](NC(=O)[C@H](Cc2cccc(C)n2)NC(=O)[C@H](N)CC(C)(C)C)[C@@H](c2ccccc2)NC(=O)[C@H](CO)NC(=O)[C@H]([C@H](O)C(N)=O)NC(=O)CNC(=O)[C@H]([C@H](C)O)NC1=O.O=C(O)C(F)(F)F.O=C(O)C(F)(F)F.O=C(O)C(F)(F)F [Example 6] (H-[d(tBuAla)][X1][Phe(βR-NH)][Leu(3R-OH)]L[dR]I[aThr]G[Asn(3S-OH)]S; lactam 3-C) | – | – | – | – | 0.5 | – | 0.25 | 0.25 |
| CC[C@H](C)[C@@H]1NC(=O)[C@@H](CCCNC(=N)N)NC(=O)[C@H](CC(C)C)NC(=O)[C@H]([C@H](O)C(C)C)NC(=O)[C@@H](NC(=O)[C@H](Cc2ccc(C(F)(F)F)nc2)NC(=O)[C@H](N)CC(C)(C)C)[C@@H](c2ccccc2)NC(=O)[C@H](CO)NC(=O)[C@H]([C@H](O)C(N)=O)NC(=O)CNC(=O)[C@H]([C@H](C)O)NC1=O.O=C(O)C(F)(F)F.O=C(O)C(F)(F)F [Example 7] (H-[d(tBuAla)][X2][Phe(βR-NH)][Leu(3R-OH)]L[dR]I[aThr]G[Asn(3S-OH)]S; lactam 3-C) | – | – | – | – | 0.25 | – | 0.125 | 0.125 |
| CC[C@H](C)[C@@H]1NC(=O)[C@@H](CCCNC(=N)N)NC(=O)[C@H](CC(C)C)NC(=O)[C@H]([C@H](O)C(C)C)NC(=O)[C@@H](NC(=O)[C@H](CC(C)(C)C)NC(=O)[C@H](N)CC(C)C)[C@@H](c2ccccc2)NC(=O)[C@H](CO)NC(=O)[C@H]([C@H](O)C(N)=O)NC(=O)CNC(=O)[C@H]([C@H](C)O)NC1=O.O=C(O)C(F)(F)F.O=C(O)C(F)(F)F [Example 9] (H-[dL][tBuAla][Phe(βR-NH)][Leu(3R-OH)]L[dR]I[aThr]G[Asn(3S-OH)]S; lactam 3-C) | – | – | – | – | 0.5 | – | 0.125 | 0.25 |
